Results published in US20240209011A1, “HETEROAROMATIC PHOSPHONIUM SALTS FOR TREATING CANCER” (FLORATEK PHARMA S.A., priority 2021, published 2024).

Columns and labels:
Type in all cases: cell-based
brain cancer cell = assay: Activity against brain cancer cells; details: brain cancer cell growth; Tables 4A-4D
Procedure: (§1) Antitumor activity of the compounds and doxorubicin as a positive control was assessed by using the CellTiter-Blue Cell Viability Assay (Promega, #G8082) or CellTiter-Glow® Luminescent Cell Viability assay (Promega #G7572) according to the manufacturer's instructions. The compounds were tested at 5 or 6 concentrations in half-log increments (highest concentration 30 μM or 100 μM) in duplicate or triplicate well conditions.
(§2) Tumor cells were grown at 37° C. in a humidified atmosphere with 5% CO2 in RPMI 1640 or DMEM medium, supplemented with 10% (v/v) fetal calf serum and 50 μg/ml gentamicin for up to 20 passages, and were passaged once or twice weekly. Cells were harvested using TrypLE or PBS buffer containing 1 mM EDTA, and the percentage of viable cells is determined using a CASY Model TI cell counter (OMNI Life Science). Cells were harvested from exponential phase cultures, counted and plated in 96 well flat-bottom microtiter plates at a cell density depending on the cell line's growth rate (4,000-20,000 cells/well depending on the cell line's growth rate, up to 60,000 for hematological cancer cell lines) in RPMI 1640 or DMEM medium supplemented with 10% (v/v) fetal calf serum and 50 μg/ml gentamicin (140 μl/well). Cultures were incubated at 37° C. and 5% CO2 in a humidified atmosphere. After 24 h, 10 μl of test compounds or control medium were added, and left on the cells for another 72 h. Compounds were serially diluted in DMSO, transferred in cell culture medium, and added to the assay plates. The DMSO concentration was kept constant at <0.3% v/v across the assay plate. Viability of cells was quantified by the CellTiter-Blue® cell viability assay (Promega G8081) or CellTiter-Glow® Luminescent Cell Viability assay (Promega #G7572). Fluorescence (FU) was measured by using the EnSpire® multimode plate reader (Perkin Elmer) (excitation X=570 nm, emission λ=600 nm). Luminescence was measured with a microplate luminometer (Promega or PerkinElmer).
(§3) Sigmoidal concentration-response curves were fitted to the data points (test-versus-control, T/C values) obtained for each tumor model using 4 parameter non-linear curve fit (Charles River DRS Datawarehouse Software) or with GraphPad prism 5.02 software. IC50 values are reported as absolute IC50 values, being the concentration of test compound at the intersection of the concentration-response curves with T/C=50% Cell lines tested are presented in Table 1.

PC-3 = assay: Cell viability assay (CellTiter-Blue/CellTiter-Glow); details: Homo sapiens; prostate carcinoma cell line PC-3; absolute IC50; 72 h
Procedure: as §1, §2, §3

MCF-7 = assay: as above; details: Homo sapiens, MCF7; breast carcinoma cell line MCF-7; absolute IC50; 72 h
Procedure: as §1, §2, §3

MDA-MB-468 = assay: as above; details: Homo sapiens; breast carcinoma cell line MDA-MB-468; absolute IC50; 72 h
Procedure: as §1, §2, §3

22Rv1 = assay: as above; details: Homo sapiens; prostate carcinoma cell line 22Rv1; absolute IC50; 72 h
Procedure: as §1, §2, §3

LoVo = assay: as above; details: Homo sapiens; colon carcinoma cell line LoVo; absolute IC50; 72 h
Procedure: as §1, §2, §3

LNCaP = assay: as above; details: Homo sapiens; prostate carcinoma cell line LNCaP; absolute IC50; 72 h
Procedure: as §1, §2, §3

HL-60 = assay: as above; details: Homo sapiens; leukaemia cell line HL-60; absolute IC50; 72 h
Procedure: as §1, §2, §3

HCT-116 = assay: as above; details: Homo sapiens; colon carcinoma cell line HCT-116; absolute IC50; 72 h
Procedure: as §1, §2, §3

prostate cancer cell = assay: Activity against prostate cancer cells; details: prostate cancer cell growth; text summary of Table 21
Procedure: as §1, §2, §3

leukaemia cell = assay: Activity against leukaemia cells; details: leukaemia cell growth; Tables 13A and 13B
Procedure: as §1, §2, §3

colon cancer cell = assay: Activity against colon cancer cells; details: colon cancer cell growth; summary of Tables 7A-7D
Procedure: as §1, §2, §3

ovarian cancer cell = assay: Activity against ovarian cancer cells; details: ovarian cancer cell growth; Tables 18A-18C
Procedure: as §1, §2, §3

pancreatic cancer cell = assay: Activity against pancreatic cancer cells; details: pancreatic cancer cell growth; Table 19A
Procedure: as §1, §2, §3

breast cancer cell = assay: Activity against breast cancer cells; details: breast cancer cell growth; Tables 5A and B
Procedure: as §1, §2, §3

breast PDX = assay: Activity against breast PDX; details: growth of breast PDX; summary of Table 6
Procedure: (§4) PDX-derived cell cultures were obtained from tumors explanted from mice and isolated by mechanical and enzymatic dissociation. […] Cells were harvested and seeded in 96-wells plates at a density of 1.25 to 5×10^3 cells/well for cytotoxicity assays. Cells were incubated 48 h at 37° C. prior to addition of test molecules and vehicle (DMSO, 0.1%) at desired final concentrations. Cell viability was assessed before drugs' addition (To) and 5 days after test molecules addition by measuring ATP cell content using CellTiter-Glo® Luminescent Cell Viability Assay (Promega) according to the manufacturer's instructions. Luciferase activity was measured on a luminometer (PerkinElmer® EnVision™). Each concentration of compounds was tested in triplicate.
(§5) Viability was calculated as a percentage of ATP value compared to vehicle treated controls.
(§6) For PDX primary cell cultures, the tumour tissue was washed with PBS containing antibiotic-antimycotic and non-tumour tissue and necrotic tumour tissues were separated. The tumour tissue was transferred to a new dish and cut into 1-2 mm^3 fragments, resuspended in RPMI-1640 medium and centrifuged at 1,200 rpm for 6 min at room temperature. The pelleted material was resuspended with 15 mL of Tumour Cell Digestion Solution and incubated at 37° C. for 1 hour with agitation. Following further addition of media, centrifugation and passage through a […] cell strainer, the homogenous cell mixture was layered onto 15 mL of Ficoll-Paque PLUS in a 50 mL conical tube and centrifuged for 15 min at 1,600 rpm. The interface cells were collected, washed with media, separated by centrifugation at 1,200 rpm. The cell pellet was resuspended in serum free media supplemented with growth factors. 10,000 cells/wells were plated in a 96 well plate and incubated at 37° C., 5% CO2, 95% air and 100% relative humidity overnight. The cytotoxicity assay was conducted as above. IC50 values represent absolute IC50.

kidney PDX = assay: Activity against kidney PDX; details: kidney PDX growth; summary of Table 12
Procedure: as §4, §5, §6

Row | Structure (SMILES) | IC50 (brain cancer cell) [µM] | IC50 (PC-3) [µM] | IC50 (MCF-7) [µM] | IC50 (MDA-MB-468) [µM] | IC50 (22Rv1) [µM] | IC50 (LoVo) [µM] | IC50 (LNCaP) [µM] | IC50 (HL-60) [µM] | IC50 (HCT-116) [µM] | IC50 (prostate cancer cell) [µM] | IC50 (leukaemia cell) [µM] | IC50 (colon cancer cell) [µM] | IC50 (ovarian cancer cell) [µM] | IC50 (pancreatic cancer cell) [µM] | IC50 (breast cancer cell) [µM] | IC50 (breast PDX) [µM] | IC50 (kidney PDX) [µM]
1 | O=c1cc(-c2ccc(CCCC[P+](c3ccccc3)(c3ccccc3)c3ccccc3)cc2)oc2c(O)c(O)ccc12 [SND118, 4-[4-(7,8-dihydroxy-4-oxo-chromen-2-yl)phenyl]butyltriphenyl-phosphonium bromide] | < 20 | 5.3 | 0.86 | 0.32 | 5.1 | 7.9 | 1.87 | 0.29 | 1.53 | < 10 | < 20 | < 20 | < 20 | < 20 | < 20 | – | –
2 | O=c1cc(-c2ccc(CCCC[P+](c3ccccc3)(c3ccccc3)c3ccccc3)cc2)oc2c3c(ccc12)OCO3.[Br-] [SND123, 4-[4-(6-oxo-[1,3]dioxolo[4,5-h]chromen-8-yl)phenyl]butyl-triphenylphosphonium bromide] | < 20 | 1.89 | 6.87 | 0.36 | 1.49 | 1.7 | 1.37 | 1.08 | 2.25 | < 10 | < 20 | < 20 | < 20 | < 20 | < 20 | < 20 | < 20
3 | CCNC(=O)Oc1ccc2c(=O)cc(-c3ccc(CCCC[P+](c4ccccc4)(c4ccccc4)c4ccccc4)cc3)oc2c1OC(=O)NCC.[Br-] [SND124, 4-[4-[7,8-Bis(ethylcarbamoyloxy)-4-oxo-chromen-2-yl]phenyl]-butyltriphenylphosphonium bromide] | < 20 | 6.3 | 2 | 0.5 | 3.4 | 21.4 | 4 | 0.29 | 4.2 | < 10 | < 20 | < 20 | < 20 | < 20 | < 20 | < 20 | < 20
4 | CCNC(=O)Oc1ccc2c(=O)cc(-c3ccc(CCCC[P+](c4ccccc4)(c4ccccc4)c4ccccc4)cc3)oc2c1O.[Br-] [SND126A, 4-[4-[7-(Ethylcarbamoyloxy)-8-hydroxy-4-oxo-chromen-2-yl]phenyl]butyltriphenylphosphonium bromide] | < 20 | 2.91 | 12.9 | 0.56 | 2.39 | 2.94 | 1.95 | 0.58 | 3.56 | < 10 | < 20 | < 20 | < 20 | < 20 | < 20 | < 20 | < 20
5 | CC(C)NC(=O)Oc1ccc2c(=O)cc(-c3ccc(CCCC[P+](c4ccccc4)(c4ccccc4)c4ccccc4)cc3)oc2c1O [SND127, 4-[4-[7-(Isopropylcarbamoyloxy)-8-hydroxy-4-oxo-chromen-2-yl]phenyl]butyltriphenylphosphonium bromide] | < 20 | 5.5 | 6.7 | 0.6 | 3.3 | 8.4 | 2 | 1.54 | 6.2 | < 10 | < 20 | < 20 | < 20 | < 20 | < 20 | – | –
6 | COc1c(O)ccc2c(=O)cc(-c3ccc(CCCC[P+](c4ccccc4)(c4ccccc4)c4ccccc4)cc3)oc12.[Br-] [SND140, (4-(4-(7-hydroxy-8-methoxy-4-oxo-4H-chromen-2-yl)phenyl)butyl)triphenylphosphonium bromide] | < 20 | 8.31 | 4.3 | 2.8 | 9 | 16.3 | 6.23 | 0.9 | 10.6 | < 10 | < 20 | < 20 | < 20 | < 20 | < 20 | < 20 | < 20
